These results are taken from patent US8278322.

Where two headings read alike, the source gives them in different places.

Compound `C=C1CC(C)(C)COC(=O)N[C@@H](C2CCCCC2)C(=O)N2C[C@@H](C[C@H]2C(=O)OCC)Oc2nccc3cc(OC)c1cc23` had a ring closure, yield of all isomers (from C=CCC(C)(C)COC(=O)N[C@H](C(=O)N1C[C@H](Oc2nccc3cc(OC)c(Br)cc23)C[C@H]1C(=O)OCC)C1CCCCC1, cc_pd bond, PdCl2(dppf), ethanol, 66.4 mM, 90.0 °C, 19.0 h) of 35.5%.

For the compound `CCOC(=O)[C@@H]1C[C@@H]2CN1C(=O)[C@H](C(C)(C)C)NC(=O)OCCCC#Cc1ccc3ccnc(c3c1)O2`, the ring closure, yield of all isomers (from CCOC(=O)[C@@H]1C[C@@H](Oc2nccc3ccc(C#CCCCOC(=O)N[C@H](C(=O)O)C(C)(C)C)cc23)CN1C(=O)OC(C)(C)C, amide bond, HATU, DCM, 3.7 mM, 20.0 h, 2 steps) was 14.5%.

In turn, `CCCC[C@@H]1NC(=O)OCCCC=Cc2ccc3ccnc(c3c2)O[C@@H]2C[C@@H](C(=O)OCC)N(C2)C1=O` yielded a ring closure, yield of all isomers (from C=CCCCOC(=O)N[C@@H](CCCC)C(=O)N1C[C@H](Oc2nccc3ccc(C=C)cc23)C[C@H]1C(=O)OCC, rcm bond, Zhan Catalyst I (RC-301), dichloro(5-chloro-2-isopropoxybenzylidene)(1,3-dimesitylimidazolidin-2-ylidene)ruthenium, 1,2-dichloroethane, 7.4 mM, 80.0 °C, 2.0 h) of 63.5%.

For the compound `CCOC(=O)[C@@H]1C[C@@H]2CN1C(=O)[C@H](C1CCCC1)NC(=O)OCC(C)(C)C/C=C/c1ccc3ccnc(c3c1)O2`, under “from C=CCC(C)(C)COC(=O)N[C@H](C(=O)N1C[C@H](Oc2nccc3ccc(C=C)cc23)C[C@H]1C(=O)OCC)C1CCCC1, rcm bond, Zhan 1B, DCE, 2.88 mM, 70.0 °C, 3.0 h”, the ring closure, yield of all isomers was found to be 83%.
